Laboratory results taken from patent EP0314302A2, “Herbicidal o-carbomethoxy-sulfonylureas” (E.I. DU PONT DE NEMOURS AND COMPANY, priority 1987, dated 1989).

What was measured:
Smooth crabgrass = experiment: Test 11 windowsill flats, postemergence; type: in vivo, Digitaria ischaemum; conditions: Postemergence 32 g/ha, 0.25% X-77 surfactant, scale 0-100
Procedure: (§1) Budded citrus seedlings were planted in 30-liter plastic pots which were also seeded with sandbur, guineagrass, narrowleaf panicum, common ragweed, yellow nutsedge, purple nutsedge and bindweed. Compound I was applied preemergence and postemergence to the weeds. Treatments were sprayed to simulate the trunk-to-trunk herbicide application method used in some citrus groves. The compound was also applied postemergence to weeds grown in windowsill flats. The flats were filled with planting medium and seeded with morningglory (Ipomoea spp.). purple nutsedge (Cyperus rotundus), pigweed (Amaranthus spp.), bindweed (Convolvulus spp.), narrowleaf panicum (Panicum maximum), common ragweed (Ambrosia artemisiifolia), sandbur (Cenchrus echinatus), itchgrass (Rottboellia exaltata), johnsongrass (Sorghum halepense), guineagrass (Panicum maximum), smooth crabgrass (Digitaria ischaemum), broadleaf signalgrass (Brachiaria platyphylla), bermudagrass (Cynodon dactylon), goosegrass (Eleusine indica), large crabgrass (Digitaria sanguinalis) and yellow nutsedge (Cyperus esculentus).
(§2) The compound was formulated and sprayed with 0.25% X-77 surfactant in water. Plants were visually rated 21 and 29 days after treatment and compared with appropriate controls. Injury ratings were based on the scale of 0 to 100, where 0 indicates no effect, 20 indicates minimum effect and 100 indicates complete control. […]

Goosegrass = experiment: Test 11 windowsill flats, postemergence; type: in vivo, Eleusine indica; conditions: Postemergence 32 g/ha, 0.25% X-77 surfactant, scale 0-100
Procedure: as §1, §2

Sowthistle = experiment: Test 7 postemergence; type: in vivo, Sonchus spp; conditions: scale 0-100
Procedure: (§3) Individual 11.4-cm plastic pots filled with planting medium were seeded with rape, wild radish (Raphanus raphanistruna). tansy mustard (Descurainia pinnata), ball mustard (Neslia paniculata), black mustard (Brassica nigra), yellow mustard, brown mustard, lentils, safflower, flax, sunflower, peanut, vetch, alfalfa, field bean, pea, violet (Viola spp), Kochia (Kochia spp), Russian thistle (Salsola spp), Matricaria spp, groundsel (Senecio spp), shepherdspurse (Capsella bursa-pastoris), nightshade (Solanum spp), sowthistle (Sonchus spp), sugar beet, wheat, "Bonanza" barley and "Morex" barley, Kentucky bluegrass (Poa pratensis), red clover (Trifolium pratense), dandelion (Taraxacum spp) and buckhorn plantain (Plantago lanceolata).
(§4) Plants were treated postemergence with the compound formulated with a non-phytotoxic carrier. Plants were visually rated 18 days after treatment (DAT). Response ratings were based on the scale of 0 to 100 where 0 = no effect, 20 = minimal injury and 100 = complete control.

Guinea Grass [1] = experiment: Test 5 sugarcane injury and weed control, postemergence; type: in vivo, P. maximum; conditions: scale 0-100
Procedure: (§5) Sugarcane (Saccharum spp.) cuttings which had been pre-sprouted were planted in 15-cm plastic pots. Narrowleaf panicum (Panicum maximum), large crabgrass (Digitaria sanguinalis), guineagrass (P. maximum) and itchgrass (Rottboellia exaltata) were seeded in individual 15-cm plastic pots.
(§6) The pots were treated postemergence when the plants had 3 to 4 leaves with 2 to 3 tillers with Compound I formulated in a non-phytotoxic carrier made up of acetone-humectant-water-surfactant (22:1:1:0.05 v/v). The degree of crop injury and weed control was visually rated 27 days after treatment (DAT). Plant injury ratings are based on the scale of 0 to 100 where 0 = no effect, 20 = minimal injury and 100 = complete control.

Grapes = experiment: Test 10 postemergence safety to crops and weed control; type: in vivo, Macedine grapes; conditions: scale 0-100
Procedure: The object of these tests was to evaluate the compound of this invention for postemergence safety to crops and weed control. Seedling and budded Macedine grapes were grown in 11.4-cm pots. Flax, green foxtail (Setaria viridis), "Morex" barley, wild oats (Avena fatua), "Era" wheat, annual ryegrass (Lolium multiflorum), wild radish (Raphanus raphanistrum), rape, sunflower, chickweed (Stellaria media) and wild buckwheat (Polygonum convolvulus) were seeded in windowsill pots.
The plants were sprayed postemergence with Compound I in a non-phytotoxic solvent. Plants were visually rated 15 and 27 days after treatment (DAT). Injury and weed control ratings were based on the scale of 0 to 100 where 0 = no effect, 20 minimal control and 100 = complete control.

Guinea Grass [2] = experiment: Test 9 postemergence; type: in vivo, Panicum maximum; conditions: 16 g/ha, scale 0-100
Procedure: (§7) Plastic windowsill pots containing planting medium were seeded with bahiagrass, bindweed (Convolvulus spp), guinea grass (Panicum maximum), large crabgrass (Digitaria sanguinalis) and pigweed (Amaranthus spp). Individual 15-cm plastic pots contained sandbur (Cenchrus echinatus), Mikania cordata, Boston fern (Nephrolepis exalata), quackgrass (Agropyron repens), elephantgrass (Pennisetum purpureum) and sowthistle (Sonchus spp) plants.
(§8) Plants were treated postemergence with Compound I formulated in a non-phytotoxic solvent. Plants were visually rated 22 days after treatment (DAT). Injury and weed control ratings were based on the scale of 0 to 100 where 0 = no effect, 20 = minimal control and 100 = complete control.

Sugarcane = experiment: Test 5 sugarcane injury and weed control, postemergence; type: in vivo, Saccharum spp.; conditions: scale 0-100
Procedure: as §5, §6

Bahia grass = experiment: Test 9 postemergence; type: in vivo, bahiagrass; conditions: 16 g/ha, scale 0-100
Procedure: as §7, §8

Sandbur = experiment: Test 11 citrus pots, postemergence to the weeds; type: in vivo, Cenchrus echinatus; conditions: Postemergence 32 g/ha, 0.25% X-77 surfactant, scale 0-100
Procedure: as §1, §2

Yellow nutsedge = experiment: Test 11 citrus pots, postemergence to the weeds; type: in vivo, Cyperus esculentus; conditions: Postemergence 32 g/ha, 0.25% X-77 surfactant, scale 0-100
Procedure: as §1, §2

Loblolly pine = experiment: Test 13 conifer seedlings, postemergence; type: in vivo; conditions: scale 0-100
From the text: Conifer species (Loblolly pine) seedlings were transplanted into 15-cm plastic pots filled with planting medium. Compound I was applied postemergence to the loblolly pine seedlings. The compound was formulated in a non-phytotoxic spray solvent. Plans were visually rated 240 days after treatment (DAT) and compared with appropriate controls. Injury ratings are based on the scale of 0 to 100, where 0 indicates no effect, 20 indicates minimal injury and 100 indicates complete kill.

Kochia = experiment: Test 7 postemergence; type: in vivo, Kochia spp; conditions: scale 0-100
Procedure: as §3, §4

Broadleaf signalgrass = experiment: Test 11 windowsill flats, postemergence; type: in vivo, Brachiaria platyphylla; conditions: Postemergence 32 g/ha, 0.25% X-77 surfactant, scale 0-100
Procedure: as §1, §2

Bindweed = experiment: Test 11 citrus pots, preemergence to the weeds; type: in vivo, Convolvulus spp.; conditions: Preemergence 32 g/ha; 0.25% X-77 surfactant; scale 0-100
Procedure: as §1, §2

Question: For `COC(=O)c1cccnc1S(=O)(=O)NC(=O)Nc1nc(OC)cc(OC)n1` [Compound I, 2-[[(4,6-dimethoxypyrimidin-2-yl)aminocarbonyl]aminosulfonyl]-3-pyridinecarboxylic acid, methyl ester], which Injury ratings (Smooth crabgrass) is on record?
Answer: Its Injury ratings is 100.

Question: And the Injury ratings (Goosegrass)?
Answer: The Injury ratings was 90.

Question: What about the “Plant Injury Rating 18 DAT” value (Sowthistle; 16 g/ha) of the same compound?
Answer: Its value is 100.

Question: And the “Plant Injury Rating 18 DAT” value (Sowthistle; 32 g/ha)?
Answer: The value was 100.

Question: What about the “Plant Injury Rating 27 DAT” value (Guinea Grass [1]; 8 g/ha) of the same compound?
Answer: The value was 30.

Question: What about the “Plant Injury Rating 27 DAT” value (Guinea Grass [1]; 16 g/ha) of the same compound?
Answer: Its value is 70.

Question: What about the “Plant Injury Rating 27 DAT” value (Guinea Grass [1]; 32 g/ha) of the same compound?
Answer: The value was 80.

Question: And the “Plant Injury Rating 27 DAT” value (Guinea Grass [1]; 64 g/ha)?
Answer: The value was 100.

Question: And the “Plant Injury Rating 27 DAT” value (Grapes; Budded grapes, 1 g/ha)?
Answer: The value was 0.

Question: And the “Plant Injury Rating 27 DAT” value (Grapes; Budded grapes, 2 g/ha)?
Answer: The value was 0.

Question: And the “Plant Injury Rating 27 DAT” value (Grapes; Budded grapes, 4 g/ha)?
Answer: The value was 0.

Question: What about the “Plant Injury Rating 27 DAT” value (Grapes; Budded grapes, 8 g/ha) of the same compound?
Answer: Its value is 0.

Question: What about the “Plant Injury Rating 27 DAT” value (Grapes; Budded grapes, 16 g/ha) of the same compound?
Answer: Its value is 10.

Question: What about the “Plant Injury Rating 27 DAT” value (Grapes; Budded grapes, 32 g/ha) of the same compound?
Answer: The value was 10.

Question: And the “Plant Injury Rating 27 DAT” value (Grapes; Seedling grapes, 1 g/ha)?
Answer: Its value is 0.

Question: What about the “Plant Injury Rating 27 DAT” value (Grapes; Seedling grapes, 2 g/ha) of the same compound?
Answer: Its value is 0.

Question: And the “Plant Injury Rating 27 DAT” value (Grapes; Seedling grapes, 4 g/ha)?
Answer: The value was 0.

Question: What about the “Plant Injury Rating 27 DAT” value (Grapes; Seedling grapes, 8 g/ha) of the same compound?
Answer: Its value is 10.

Question: And the “Plant Injury Rating 27 DAT” value (Grapes; Seedling grapes, 16 g/ha)?
Answer: The value was 20.

Question: What about the “Plant Injury Rating 27 DAT” value (Grapes; Seedling grapes, 32 g/ha) of the same compound?
Answer: Its value is 20.

Question: And the “Plant Injury Rating 22 DAT” value (Guinea Grass [2])?
Answer: The value was 60.

Question: And the “Plant Injury Rating 27 DAT” value (Sugarcane; 8 g/ha)?
Answer: Its value is 10.

Question: And the “Plant Injury Rating 27 DAT” value (Sugarcane; 16 g/ha)?
Answer: Its value is 20.

Question: And the “Plant Injury Rating 27 DAT” value (Sugarcane; 32 g/ha)?
Answer: The value was 20.

Question: What about the “Plant Injury Rating 27 DAT” value (Sugarcane; 64 g/ha) of the same compound?
Answer: Its value is 30.

Question: What about the “Plant Injury Rating 22 DAT” value (Bahia grass) of the same compound?
Answer: The value was 40.

Question: What about the Injury ratings (Sandbur) of the same compound?
Answer: Its Injury ratings is 100.

Question: What about the Injury ratings (Yellow nutsedge) of the same compound?
Answer: The Injury ratings was 100.

Question: And the “Plant Injury Rating 240 DAT” value (Loblolly pine; 8 g/ha)?
Answer: The value was 0.

Question: And the “Plant Injury Rating 240 DAT” value (Loblolly pine; 16 g/ha)?
Answer: The value was 0.

Question: And the “Plant Injury Rating 240 DAT” value (Loblolly pine; 32 g/ha)?
Answer: The value was 0.

Question: What about the “Plant Injury Rating 240 DAT” value (Loblolly pine; 64 g/ha) of the same compound?
Answer: The value was 0.

Question: And the “Plant Injury Rating 240 DAT” value (Loblolly pine; 125 g/ha)?
Answer: Its value is 0.

Question: What about the “Plant Injury Rating 18 DAT” value (Kochia; 16 g/ha) of the same compound?
Answer: Its value is 100.

Question: And the “Plant Injury Rating 18 DAT” value (Kochia; 32 g/ha)?
Answer: Its value is 100.

Question: And the Injury ratings (Broadleaf signalgrass)?
Answer: Its Injury ratings is 100.

Question: What about the Injury ratings (Bindweed) of the same compound?
Answer: Its Injury ratings is 90.
